pIC50: −log10 of the molar value. Where two headings read alike, the source gives them in different places.
Tests used:
NCI-H3122 = experiment: In vitro cell activity, NCI-H3122, MTS detection; assay type: cell-based; details: Homo sapiens, read-out: cell-inhibiting activity IC50, NCI-H3122
Protocol: (§1) Cells were digested with pancreatin. After centrifugation at 1000 rpm for 4 min, the supernatant was removed. […] The cell suspension (90 μL) was seeded to a 96-well plate to obtain a final cell density of 3000 cells/well; and then cultured in a 5% CO2, 37° C. incubator for 24 h.
(§2) Preparation of test compound solutions: a suitable amount of test compound (please see the following table for sample weight) was weighed, and diluted gradiently with DMSO to prepare a series of stock solutions of different concentrations (1000×test compound solution). Each of said stock solutions was further diluted by 100 folds with medium to obtain a 10×test compound solution.
(§3) Solvent control: 0.1% DMSO.
(§4) Cell control: cell seeding only, with no addition of compound.
(§5) Blank control: medium, for zero setting in an instrument.
(§6) (3.3) The 96-well plate was cultured in a 37° C., 5% CO2 incubator for 72h.
(§7) (1) The reagents in CellTiter 96®AQueous One Solution Cell Proliferation Assay (MTS) were placed at room temperature for 90 min.
(§8) (2) To each test well in the 96-well plate, 20 μL CellTiter 96® A Queous One Solution reagent was added.
(§9) (3) The 96-well plate was cultured in a 37° C., 5% CO2 incubator for 40 min.
(§10) (4) The results were read by Microplate Reader at 490 nm.
(§11) IC50 calculation: cell survival rate (%)=(ODsample value−ODblank value)/(ODmaximal value−ODblank value)×100, wherein Graph prisim software is used in curve fitting to get IC50 value.
(§12) ODmaximal value: cell control with the addition of solvent and no compound, ODblank value: blank control value.

Karpas-299 = experiment: In vitro cell activity, Karpas-299, MTS detection; assay type: cell-based; details: Homo sapiens, read-out: cell-inhibiting activity IC50, Karpas-299
Protocol: as §1, §2, §3, §4, §5, §6, §7, §8, §9, §10, §11, §12

NCI-H2228 = experiment: In vitro cell activity, NCI-H2228, CTG detection; assay type: cell-based; details: Homo sapiens, read-out: cell-inhibiting activity IC50, NCI-H2228
Protocol: Cells were digested with pancreatin. After centrifugation at 1000 rpm for 4 min, the supernatant was removed. […] The cell suspension (100 μL) was seeded to a 96-well plate to obtain a final cell density of 2000 cells/well.
(3.1) Preparation of test compound solutions: a suitable amount of test compound (please see the following table for sample weight) was weighed, and dissolved by adding a suitable amount of DMSO. The resultant mixture was mixed homogeneously, and diluted gradiently with DMSO to prepare a series of solutions of different concentrations, for later usage.
Solvent control: 0.5% DMSO.
as §4, §5
(3.3) The 96-well plate was cultured in a 37° C., 5% CO2 incubator for 96 h.
(1) 80 μL medium was removed from each well in the 96-well plate, and the plate was placed at room temperature for 30 min.
(2) 60 μL CellTiter-Glo® reagent was added to each test well in the 96-well plate.
(3) The 96-well plate was shaken for 2 min in dark to mix the mixture homogeneously in a microplate shaker, so as to lyse the cells.
(4) The 96-well plate was incubated in dark at room temperature for 10 min, to keep the light signal value stable.
(5) The results were read by Microplate Reader in luminescence mode.
IC50 calculation: cell inhibition rate (%)=(ODmaximal value−ODcompound)/(ODmaximal value−ODblank value)×100, wherein Graph prisim software is used in curve fitting to get IC50 value.
ODmaximal value: cell control with the addition of solvent and no compound, ODblank value: medium blank control.

ALK kinase [1] = biological target: T1, ALK kinase (Homo sapiens, UniProt Q9UM73); experiment: In vitro ALK kinase-inhibiting activity (SA-XL665/tyrosine kinase antibody, 665 nm/615 nm read); assay type: biochemical; details: Experimental Example 1; 25° C., 30 min enzymatic reaction; read-out: ALK enzyme-inhibiting activity IC50
Protocol: Preparation of ALK Kinase Buffer:
(§13) The resultant mixture was mixed homogeneously, for later usage.
as §13
Preparation of a stock solution of compound at a concentration of 1 mM: a suitable amount of compound (please see the following table for sample weight) was weighed, and dissolved by adding a suitable amount of DMSO. The resultant mixture was mixed homogeneously, for later usage.
Each of the 1 mM stock solutions was diluted with DMSO to a 200 μM solution, which was used as initial solution. Each of said initial solutions was 3-fold diluted with DMSO to prepare a series of solutions of different concentrations, and then the solution of each concentration was diluted with the ALK kinase buffer by 80 folds to prepare a 2.5×test compound solution.
Preparation of Other Reagents:
5×ALK kinase solution, 5×substrate solution, and 5×ATP solution, were prepared by using the ALK kinase buffer, for later usage.
1) 4 μL 2.5× test compound solution and 2 μL 5×ALK kinase solution were added to the corresponding wells in a 384-well plate, respectively, and incubated at 25° C. for 10 min.
2) To the corresponding wells, 2 μL 5× substrate solution and 2 μL 5×ATP solution were further added to start the enzymatic reaction, and incubation was performed at 25° C. for 30 min.
Detection buffer was used to prepare SA-XL665 at a desired concentration, which was then mixed homogeneously with the same volume of tyrosine kinase antibody. To the corresponding wells, 10 μL said antibody solution was added, and the reaction was stopped. Incubation was performed at 25° C. for 1 h.
IC50: Inhibition rate (%)=(maximal value-sample value)/(maximal value-minimal value)×100, wherein Graph prism software was used in curve fitting to get IC50 value.
Maximal value: positive control without addition of compound; minimal value: negative control without addition of enzyme.

Pharmacokinetics in rat = assay type: in vivo; details: plasma, iv 2 mg/kg, po 5 mg/kg
Protocol: Experimental Example 6 Assay on Pharmacokinetics of the Compounds Provided in Examples of the Invention in Rat
Test compounds: Compound 4, lab-made, the chemical name and preparation method of which can be found in the preparation example.
Internal standard: Alectinib, lab-made (prepared by reference to the method in Patent CN102459172A).
0.1% Tween 80+2% HPC: HPC (hydroxypropyl cellulose) (20 g) was weighed, and was added slowly to purified water (1000 mL) under stirring; Tween 80 (1 mL) was then added, and the resultant mixture was stirred until a clear solution was obtained, i.e. a blank solvent of 0.1% Tween 80+2% HPC.
A suitable amount of test compound (please see the following table for sample weight) was weighed, and said prepared solvent was added. The resultant mixture was placed in a tissue grinder, and was dispersed homogeneously at a rotation speed of 1000 r/min to get a solution for intragastric administration. […]
Protein precipitation method: to 30 μL plasma, 200 μL internal standard (acetonitrile solution containing 50 ng/mL Alectinib) was added; the resultant mixture was vortexed at 1000 r/min for 10 min, and then centrifuged at 4000 r/min for 20 min; to 100 μL supernatant, 100 μL water was added; the resultant mixture was mixed homogeneously under vortexing and analyzed by LC-MS/MS.

ALK kinase [2] = biological target: T1, ALK kinase; experiment: In vitro ALK kinase inhibitory activity by Caliper Mobility Shift assay; assay type: biochemical; details: Experimental Example 2, 28° C., 1 h, read-out: ALK enzyme-inhibiting activity IC50
Source text: Experimental method: Measurement of ALK kinase inhibitory activity by Caliper Mobility Shift assay.
1. Preparation of 1-Fold Kinase Buffer
2. Preparation of Stop Solution
3. Preparation of 5-Fold Test Compound Solutions:
Preparation of a DMSO stock solution of test compound: a suitable amount of compound (please see the following table for sample weight) was weighed, and dissolved by adding a suitable amount of DMSO. The resultant mixture was mixed homogeneously, for later usage.
Said DMSO stock solution of test compound was diluted with DMSO to a solution at a concentration of 50 μM, which was used as initial solution. Said initial solution was subjected to 4-fold gradient dilution with DMSO, and the solution at each concentration was 10-fold diluted with 1-fold kinase buffer to prepare a 5-fold test compound solution.
4. Preparation of Other Reagents:
2.5×ALK kinase solution and 2.5× polypeptide solution were prepared by using the 1-fold kinase buffer, for later usage.
1) 5 μL 5-fold test compound solution and 10 μL 2.5-fold kinase solution were added to the corresponding wells in a 384-well plate, and incubated at room temperature for 10 min.
The enzymatic reaction was started, and the incubation was performed at 28° C. for 1 h.
To the corresponding wells, 25 μL stop solution was added to stop the reaction. Data was read by Caliper device, and the inhibition rate was calculated by the data,
Inhibition rate (%)=(maximal value-sample value)/(maximal value-minimal value)×100, wherein XLFIT software was used in curve fitting to get IC50 value.
Maximal value: positive control without addition of test compound; minimal value: negative control without addition of enzyme.

T1 sequence (Q9UM73 19-1620): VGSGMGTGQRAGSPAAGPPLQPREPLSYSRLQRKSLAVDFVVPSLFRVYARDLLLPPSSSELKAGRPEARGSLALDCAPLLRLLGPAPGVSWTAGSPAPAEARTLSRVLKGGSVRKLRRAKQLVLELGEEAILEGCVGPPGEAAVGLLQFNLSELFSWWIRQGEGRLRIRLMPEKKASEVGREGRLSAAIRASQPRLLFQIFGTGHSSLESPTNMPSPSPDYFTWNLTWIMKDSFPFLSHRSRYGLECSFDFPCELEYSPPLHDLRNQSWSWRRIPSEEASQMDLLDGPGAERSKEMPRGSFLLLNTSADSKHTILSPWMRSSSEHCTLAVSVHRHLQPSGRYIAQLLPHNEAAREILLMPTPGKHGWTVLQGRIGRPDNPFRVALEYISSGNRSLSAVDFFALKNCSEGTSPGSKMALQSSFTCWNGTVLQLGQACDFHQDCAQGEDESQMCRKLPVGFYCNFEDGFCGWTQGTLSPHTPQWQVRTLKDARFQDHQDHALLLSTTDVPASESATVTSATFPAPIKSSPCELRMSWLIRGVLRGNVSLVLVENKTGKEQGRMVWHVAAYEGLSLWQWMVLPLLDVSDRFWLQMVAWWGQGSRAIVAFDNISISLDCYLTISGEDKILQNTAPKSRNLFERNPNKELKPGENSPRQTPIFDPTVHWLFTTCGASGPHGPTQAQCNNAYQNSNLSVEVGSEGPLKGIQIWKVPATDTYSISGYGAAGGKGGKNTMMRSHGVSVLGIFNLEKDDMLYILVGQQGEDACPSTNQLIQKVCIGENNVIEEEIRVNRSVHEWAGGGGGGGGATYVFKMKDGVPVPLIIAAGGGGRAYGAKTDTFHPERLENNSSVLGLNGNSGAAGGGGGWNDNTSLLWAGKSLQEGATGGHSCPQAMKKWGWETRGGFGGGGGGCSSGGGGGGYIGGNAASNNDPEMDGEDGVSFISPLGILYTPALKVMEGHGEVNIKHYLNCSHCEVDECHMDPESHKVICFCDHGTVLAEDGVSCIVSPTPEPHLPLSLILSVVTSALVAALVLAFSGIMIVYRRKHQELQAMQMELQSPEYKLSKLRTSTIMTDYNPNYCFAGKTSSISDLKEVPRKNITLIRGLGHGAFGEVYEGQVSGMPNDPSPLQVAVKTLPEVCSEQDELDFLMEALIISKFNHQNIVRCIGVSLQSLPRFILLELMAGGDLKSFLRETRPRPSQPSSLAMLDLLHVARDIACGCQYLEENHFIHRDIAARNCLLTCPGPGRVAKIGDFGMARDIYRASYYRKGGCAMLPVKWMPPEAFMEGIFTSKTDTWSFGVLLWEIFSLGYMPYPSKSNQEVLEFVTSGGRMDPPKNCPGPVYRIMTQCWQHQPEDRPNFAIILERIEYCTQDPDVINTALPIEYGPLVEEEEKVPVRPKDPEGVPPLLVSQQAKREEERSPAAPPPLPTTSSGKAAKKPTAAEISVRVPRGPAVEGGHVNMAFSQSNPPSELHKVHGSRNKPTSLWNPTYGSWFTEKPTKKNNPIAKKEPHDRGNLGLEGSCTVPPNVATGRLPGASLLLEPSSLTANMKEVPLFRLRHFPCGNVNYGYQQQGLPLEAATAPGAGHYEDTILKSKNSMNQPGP

`Cc1cc(Nc2ncc(Cl)c(Nc3ccccc3S(=O)(=O)C(C)C)n2)c(OC(C)C)cc1C1CCNCC1` [Ceritinib, reference compound] gave a pIC50 (NCI-H3122; NCI-H3122, 72 h) of 6.86, a pIC50 (Karpas-299; KARPAS-299, 72 h) of 7.52 and a pIC50 (NCI-H2228; NCI-H2228, 96 h) of 7.32.

With `Cc1cc(Nc2ncc(Cl)c(Nc3ccccc3S(=O)(=O)C(C)C)n2)c2c(c1C1CCNCC1)OCO2` [Compound 1, 5-chloro-N^4-(2-(isopropylsulfonyl)phenyl)-N^2-(6-methyl-7-(piperidin-4-yl)benzo[d][1,3]dioxol-4-yl)pyrimidine-2,4-diamine] the pIC50 (ALK kinase [1]) was 9.70, the pIC50 (NCI-H3122; NCI-H3122, 72 h, MTS) was 7.96 and the pIC50 (Karpas-299; KARPAS-299, 72 h, MTS) was 9.15. For the same compound, the pIC50 (NCI-H2228; NCI-H2228, 96 h, CTG) was 8.49.

With `Cc1cc(Nc2ncc(Cl)c(Nc3ccccc3S(=O)(=O)N(C)C)n2)c2c(c1C1CCNCC1)OCO2` [Compound 2, 2-((5-chloro-2-((6-methyl-7-(piperidin-4-yl)benzol[d][1,3]dioxol-4-yl)amino)pyrimidin-4-yl)amino)-N,N-dimethylbenzenesulfonamide] the pIC50 (ALK kinase [1]) was 8.77, the pIC50 (NCI-H3122; NCI-H3122, 72 h, MTS) was 8.38 and the pIC50 (Karpas-299; KARPAS-299, 72 h, MTS) was 8.12. For the same compound, the pIC50 (NCI-H2228; NCI-H2228, 96 h, CTG) was 8.26.

Compound `Cc1cc(Nc2ncc(Cl)c(Nc3ccccc3S(=O)(=O)N(C)C)n2)c2c(c1C1CCNCC1)OCCO2` [Compound 3, 2-((5-chloro-2-((7-methyl-8-(piperidin-4-yl)-2,3-dihydrobenzo[b][1,4]dioxin-5-yl)amino)pyrimidin-4-yl)amino)-N,N-dimethylbenzenesulfonamide] has a pIC50 (ALK kinase [1]) of 9.22, a pIC50 (NCI-H3122; NCI-H3122, 72 h, MTS) of 7.36 and a pIC50 (Karpas-299; KARPAS-299, 72 h, MTS) of 9.79. For the same compound, the pIC50 (NCI-H2228; NCI-H2228, 96 h, CTG) was 8.77.

`Cc1cc(Nc2ncc(Cl)c(Nc3ccccc3S(=O)(=O)C(C)C)n2)c2c(c1C1CCNCC1)OCCO2` [Compound 4, 5-chloro-N^4-(2-(isopropylsulfonyl)phenyl)-N^2-(7-methyl-8-(piperidin-4-yl)-2,3-dihydrobenzo[b][1,4]dioxin-5-yl)pyrimidine-2,4-diamine] gave a bioavailability (Pharmacokinetics in rat) of 30 to 50%, a pIC50 (ALK kinase [1]) of 9.05 and a pIC50 (NCI-H3122; NCI-H3122, 72 h, MTS) of 6.88. The pIC50 (Karpas-299; KARPAS-299, 72 h, MTS) was 9.15 and the pIC50 (NCI-H2228; NCI-H2228, 96 h, CTG) was 7.82.

Work on `Cc1cc(Nc2ncc(Cl)c(Nc3ccccc3S(=O)(=O)C(C)C)n2)c2c(c1C1CCNC1)OCCO2` (stereo not drawn) [Compound 5, 5-chloro-N^4-(2-(isopropylsulfonyl)phenyl)-N^2-(7-methyl-8-(pyrrolidin-3-yl)-2,3-dihydrobenzo[b][1,4]dioxin-5-yl)pyrimidine-2,4-diamine] yielded a pIC50 (ALK kinase [2]) of 9.44, a pIC50 (NCI-H3122; NCI-H3122, 72 h, MTS) of 7.60 and a pIC50 (Karpas-299; KARPAS-299, 72 h, MTS) of 8.27. The pIC50 (NCI-H2228; NCI-H2228, 96 h, CTG) was 8.13.

For `Cc1cc(Nc2ncc(Cl)c(Nc3ccccc3S(=O)(=O)C(C)C)n2)c2c(c1C1CNC1)OCCO2` [Compound 6, N^2-(8-(azetidin-3-yl)-7-methyl-2,3-dihydrobenzo[b][1,4]dioxin-5-yl)-5-chloro-N^4-(2-(isopropylsulfonyl)phenyl)pyrimidine-2,4-diamine], the pIC50 (ALK kinase [2]) was 9.35, the pIC50 (NCI-H3122; NCI-H3122, 72 h, MTS) was 7.21 and the pIC50 (Karpas-299; KARPAS-299, 72 h, MTS) was 8.00.

Compound `Cc1cc(Nc2ncc(Cl)c(Nc3ccccc3S(=O)(=O)C(C)C)n2)c2c(c1C1=CCNCC1)CCCO2` [Compound 8, 5-chloro-N^4-(2-(isopropylsulfonyl)phenyl)-N^2-(6-methyl-5-(1,2,3,6-tetrahydropyridine-4-yl)chroman-8-yl)pyrimidine-2,4-diamine] has a pIC50 (ALK kinase [2]) of 9.27, a pIC50 (NCI-H3122; NCI-H3122, 72 h, MTS) of 7.79 and a pIC50 (Karpas-299; KARPAS-299, 72 h, MTS) of 8.29.

From patent publication US10011592B2, “Polycyclic inhibitor of anaplastic lymphoma kinase” (XUANZHU PHARMA CO., LTD., priority 2014, dated 2018)
